Assay results published in ChEMBL document CHEMBL3091334, “Design and synthesis of novel 3-(benzo[d]oxazol-2-yl)-5-(1-(piperidin-4-yl)-1H-pyrazol-4-yl)pyridin-2-amine derivatives as selective G-protein-coupled receptor kinase-2 and -5 inhibitors” (Bioorg Med Chem Lett, 2013).

Assays:
[1] = target: T1, Beta-adrenergic receptor kinase 1 (Homo sapiens, UniProt P25098); assay: Inhibition of GRK-2 (unknown origin) preincubated with enzyme for 10 mins before adding peptide substrate and ATP measured after 1 hr by LANCE-TR-FRET assay
T1 sequence (P25098 whole entry): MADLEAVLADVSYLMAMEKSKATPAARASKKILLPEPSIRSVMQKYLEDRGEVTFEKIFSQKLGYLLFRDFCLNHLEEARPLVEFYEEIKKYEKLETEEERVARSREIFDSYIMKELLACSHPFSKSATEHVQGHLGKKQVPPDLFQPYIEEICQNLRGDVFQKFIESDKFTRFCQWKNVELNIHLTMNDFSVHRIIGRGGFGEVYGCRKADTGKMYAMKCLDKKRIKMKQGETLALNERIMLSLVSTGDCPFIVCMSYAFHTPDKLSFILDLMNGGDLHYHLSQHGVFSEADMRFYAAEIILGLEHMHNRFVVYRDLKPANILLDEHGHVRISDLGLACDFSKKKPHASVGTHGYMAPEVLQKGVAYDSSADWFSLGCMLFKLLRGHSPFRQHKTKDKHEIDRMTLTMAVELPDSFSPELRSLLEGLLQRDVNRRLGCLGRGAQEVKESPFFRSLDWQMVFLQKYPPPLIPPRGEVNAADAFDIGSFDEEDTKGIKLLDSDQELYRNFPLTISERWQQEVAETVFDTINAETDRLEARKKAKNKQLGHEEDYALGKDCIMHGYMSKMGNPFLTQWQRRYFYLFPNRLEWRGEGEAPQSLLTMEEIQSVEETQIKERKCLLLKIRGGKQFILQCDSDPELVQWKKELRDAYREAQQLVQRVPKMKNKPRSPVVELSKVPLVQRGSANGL

[2] = target: G protein-coupled receptor kinase 5 (Homo sapiens, UniProt P34947)
Description: Inhibition of GRK-5 (unknown origin) preincubated with enzyme for 10 mins before adding peptide substrate and ATP measured after 1 hr by LANCE-TR-FRET assay

[3] = target: Hepatocyte growth factor receptor (Homo sapiens, UniProt P08581); assay: Inhibition of c-Met (unknown origin)
[4] = target: ALK tyrosine kinase receptor (Homo sapiens, UniProt Q9UM73); assay: Inhibition of ALK (unknown origin)
Sequence of ALK tyrosine kinase receptor (Q9UM73 whole entry): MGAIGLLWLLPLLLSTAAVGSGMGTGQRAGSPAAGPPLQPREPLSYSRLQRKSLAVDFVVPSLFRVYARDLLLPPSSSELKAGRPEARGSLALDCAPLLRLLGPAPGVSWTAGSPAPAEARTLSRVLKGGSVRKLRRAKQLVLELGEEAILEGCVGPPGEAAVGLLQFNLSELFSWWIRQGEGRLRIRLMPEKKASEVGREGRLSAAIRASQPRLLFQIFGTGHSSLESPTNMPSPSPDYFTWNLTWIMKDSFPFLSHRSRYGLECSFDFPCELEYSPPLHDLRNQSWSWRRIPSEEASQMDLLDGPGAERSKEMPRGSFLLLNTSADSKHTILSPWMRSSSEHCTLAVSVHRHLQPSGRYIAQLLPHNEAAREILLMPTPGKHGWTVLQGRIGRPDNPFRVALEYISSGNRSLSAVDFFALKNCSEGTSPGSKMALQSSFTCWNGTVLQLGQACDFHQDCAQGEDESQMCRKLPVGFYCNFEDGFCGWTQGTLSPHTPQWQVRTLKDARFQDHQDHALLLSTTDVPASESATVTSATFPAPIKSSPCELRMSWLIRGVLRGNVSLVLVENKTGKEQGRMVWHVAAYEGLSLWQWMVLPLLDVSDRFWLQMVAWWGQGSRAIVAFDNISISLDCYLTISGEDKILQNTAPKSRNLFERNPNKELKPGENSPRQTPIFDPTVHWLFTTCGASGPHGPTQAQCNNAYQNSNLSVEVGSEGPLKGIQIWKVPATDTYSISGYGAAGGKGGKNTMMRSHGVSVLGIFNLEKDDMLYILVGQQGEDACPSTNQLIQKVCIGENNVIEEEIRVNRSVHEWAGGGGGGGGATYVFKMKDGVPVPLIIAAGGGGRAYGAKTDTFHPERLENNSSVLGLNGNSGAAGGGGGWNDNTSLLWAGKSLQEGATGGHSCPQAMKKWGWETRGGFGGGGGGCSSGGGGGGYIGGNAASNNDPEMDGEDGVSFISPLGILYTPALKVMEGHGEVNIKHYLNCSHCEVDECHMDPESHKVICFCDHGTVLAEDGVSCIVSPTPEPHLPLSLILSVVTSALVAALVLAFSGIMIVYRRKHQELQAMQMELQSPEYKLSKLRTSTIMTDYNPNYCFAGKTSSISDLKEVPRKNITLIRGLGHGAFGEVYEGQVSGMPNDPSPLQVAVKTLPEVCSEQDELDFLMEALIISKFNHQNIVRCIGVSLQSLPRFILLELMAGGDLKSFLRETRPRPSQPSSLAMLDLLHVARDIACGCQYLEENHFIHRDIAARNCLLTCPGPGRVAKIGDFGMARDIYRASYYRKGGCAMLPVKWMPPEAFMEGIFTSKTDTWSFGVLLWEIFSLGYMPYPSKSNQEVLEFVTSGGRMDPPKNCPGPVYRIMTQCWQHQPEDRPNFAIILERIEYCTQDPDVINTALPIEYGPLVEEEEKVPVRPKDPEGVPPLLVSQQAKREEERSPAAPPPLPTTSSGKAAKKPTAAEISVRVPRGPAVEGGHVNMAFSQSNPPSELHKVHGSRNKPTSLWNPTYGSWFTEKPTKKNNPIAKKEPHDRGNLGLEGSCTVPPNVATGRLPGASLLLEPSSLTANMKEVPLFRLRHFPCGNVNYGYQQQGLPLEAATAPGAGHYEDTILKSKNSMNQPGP

Sequence of G protein-coupled receptor kinase 5 (P34947 whole entry): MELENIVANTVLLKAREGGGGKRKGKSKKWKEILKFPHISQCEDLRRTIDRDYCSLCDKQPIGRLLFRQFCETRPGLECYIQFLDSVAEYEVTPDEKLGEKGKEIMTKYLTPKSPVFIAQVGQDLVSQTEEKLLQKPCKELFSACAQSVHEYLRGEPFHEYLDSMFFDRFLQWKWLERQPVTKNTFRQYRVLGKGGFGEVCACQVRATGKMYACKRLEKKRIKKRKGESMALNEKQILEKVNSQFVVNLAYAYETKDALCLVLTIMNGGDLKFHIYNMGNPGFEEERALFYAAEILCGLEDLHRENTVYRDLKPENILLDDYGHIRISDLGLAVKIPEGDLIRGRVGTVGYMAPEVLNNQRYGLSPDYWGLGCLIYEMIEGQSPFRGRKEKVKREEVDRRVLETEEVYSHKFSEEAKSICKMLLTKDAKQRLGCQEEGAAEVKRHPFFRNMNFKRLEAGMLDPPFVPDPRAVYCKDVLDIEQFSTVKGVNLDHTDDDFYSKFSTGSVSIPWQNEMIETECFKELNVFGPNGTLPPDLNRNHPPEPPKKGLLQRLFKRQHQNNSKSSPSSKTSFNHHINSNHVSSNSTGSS
Sequence of Hepatocyte growth factor receptor (P08581 whole entry): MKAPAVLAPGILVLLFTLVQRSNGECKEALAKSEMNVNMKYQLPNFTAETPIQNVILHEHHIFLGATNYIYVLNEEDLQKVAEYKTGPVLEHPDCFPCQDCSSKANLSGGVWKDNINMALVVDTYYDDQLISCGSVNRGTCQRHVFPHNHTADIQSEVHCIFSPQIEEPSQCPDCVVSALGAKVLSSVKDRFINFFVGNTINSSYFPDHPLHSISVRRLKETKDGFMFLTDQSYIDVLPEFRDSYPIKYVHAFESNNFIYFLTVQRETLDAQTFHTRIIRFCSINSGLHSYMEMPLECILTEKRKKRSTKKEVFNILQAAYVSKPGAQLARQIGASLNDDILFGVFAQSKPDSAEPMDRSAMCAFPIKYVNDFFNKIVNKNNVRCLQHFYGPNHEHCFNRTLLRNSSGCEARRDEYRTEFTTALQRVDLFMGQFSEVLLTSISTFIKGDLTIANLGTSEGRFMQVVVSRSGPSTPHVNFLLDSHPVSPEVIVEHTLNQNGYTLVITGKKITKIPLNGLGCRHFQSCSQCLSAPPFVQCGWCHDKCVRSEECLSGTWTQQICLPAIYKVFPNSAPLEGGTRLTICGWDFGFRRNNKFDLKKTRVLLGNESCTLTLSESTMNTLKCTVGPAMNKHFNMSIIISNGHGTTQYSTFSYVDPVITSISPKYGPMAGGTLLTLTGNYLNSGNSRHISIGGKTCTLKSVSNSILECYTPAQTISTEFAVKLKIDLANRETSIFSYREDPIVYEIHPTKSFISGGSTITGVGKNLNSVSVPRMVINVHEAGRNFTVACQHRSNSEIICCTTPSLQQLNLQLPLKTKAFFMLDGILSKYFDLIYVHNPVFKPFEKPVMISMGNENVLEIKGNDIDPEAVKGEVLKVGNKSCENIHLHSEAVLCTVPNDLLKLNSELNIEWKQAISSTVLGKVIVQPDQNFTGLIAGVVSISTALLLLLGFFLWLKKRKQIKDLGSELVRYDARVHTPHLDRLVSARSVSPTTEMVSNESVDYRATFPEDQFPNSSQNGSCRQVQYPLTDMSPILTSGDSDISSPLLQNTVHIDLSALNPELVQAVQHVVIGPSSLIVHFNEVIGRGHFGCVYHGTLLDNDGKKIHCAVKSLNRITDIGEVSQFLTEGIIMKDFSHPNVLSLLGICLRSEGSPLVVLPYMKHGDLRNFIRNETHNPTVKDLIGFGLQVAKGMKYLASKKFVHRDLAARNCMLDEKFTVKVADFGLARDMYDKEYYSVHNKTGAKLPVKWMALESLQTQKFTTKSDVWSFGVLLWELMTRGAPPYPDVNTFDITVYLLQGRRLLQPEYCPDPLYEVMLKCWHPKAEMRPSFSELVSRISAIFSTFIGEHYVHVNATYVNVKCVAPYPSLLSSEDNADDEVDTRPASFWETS

Compound	IC50 [1]	IC50 [2]	IC50 [3]	IC50 [4]
Nc1ncc(-c2cnn(C3CCNCC3)c2)cc1-c1nc2ccc(NC(=O)Nc3ccccc3)cc2o1	2.63 µM	1.66 µM		
Nc1ncc(-c2cnn(C3CCNCC3)c2)cc1-c1nc2ccc(Nc3ccc(F)cc3)cc2o1	9.3 µM	3.7 µM		
Cc1ccc(S(=O)(=O)NC(=O)Nc2ccc3nc(-c4cc(-c5cnn(C6CCNCC6)c5)cnc4N)oc3c2)cc1	8.3 µM			
CC(=O)Nc1ccc2oc(-c3cc(-c4cnn(C5CCNCC5)c4)cnc3N)nc2c1	3.06 µM	3.22 µM		
CNc1ccc2oc(-c3cc(-c4cnn(C5CCNCC5)c4)cnc3N)nc2c1	6.32 µM			
Nc1ncc(-c2cnn(C3CCNCC3)c2)cc1-c1nc2ccc(O)c(-c3ccccc3)c2o1	9.7 µM			
Cc1c(O)ccc2nc(-c3cc(-c4cnn(C5CCNCC5)c4)cnc3N)oc12	13 µM	2.2 µM		
Nc1ncc(-c2cnn(C3CCNCC3)c2)cc1-c1nc2ccc(Oc3ncccn3)cc2o1	> 10 µM	3.1 µM		
Cc1cc2nc(-c3cc(-c4cnn(C5CCNCC5)c4)cnc3N)oc2cc1O	2.14 µM			
Nc1ccc2nc(-c3cc(-c4cnn(C5CCNCC5)c4)cnc3N)oc2c1	6.2 µM	1.94 µM		
Nc1ccc2oc(-c3cc(-c4cnn(C5CCNCC5)c4)cnc3N)nc2c1	4.22 µM			
Nc1ncc(-c2cnn(C3CCNCC3)c2)cc1-c1nc2cc(Nc3ccccc3)ccc2o1	4.9 µM	3.5 µM		
CCCCNc1ccc2oc(-c3cc(-c4cnn(C5CCNCC5)c4)cnc3N)nc2c1	5.52 µM			
CN(C)c1ccc2oc(-c3cc(-c4cnn(C5CCNCC5)c4)cnc3N)nc2c1	8.27 µM	1.76 µM		
CCCNc1ccc2oc(-c3cc(-c4cnn(C5CCNCC5)c4)cnc3N)nc2c1	3.19 µM			
Nc1ncc(-c2cnn(C3CCNCC3)c2)cc1-c1nc2cc(-c3ccccc3)ccc2o1	> 10 µM	4.5 µM		
Nc1ncc(-c2cnn(C3CCNCC3)c2)cc1-c1nc2ccc(N3CCCCC3)cc2o1	10.1 µM	4.3 µM		
Nc1ncc(-c2cnn(C3CCNCC3)c2)cc1-c1nc2ccc(N3CCOCC3)cc2o1	5.3 µM	0.81 µM		
Nc1ncc(-c2cnn(C3CCNCC3)c2)cc1-c1nc2ccc(N3CCCC3)cc2o1	0.46 µM		0.008 µM	0.34 µM
CC(C)Nc1ccc2nc(-c3cc(-c4cnn(C5CCNCC5)c4)cnc3N)oc2c1	> 10 µM			
Nc1ncc(-c2cnn(C3CCNCC3)c2)cc1-c1nc2ccc(Nc3cc(C(F)(F)F)cc(C(F)(F)F)c3)cc2o1	5.7 µM	4.2 µM		
Nc1ncc(-c2cnn(C3CCNCC3)c2)cc1-c1nc2ccc(Nc3c(F)cccc3F)cc2o1	11.5 µM	4.7 µM		
Nc1ncc(-c2cnn(C3CCNCC3)c2)cc1-c1nc2ccc(Nc3cc(F)cc(F)c3)cc2o1	2.26 µM	1.25 µM		
Nc1ncc(-c2cnn(C3CCNCC3)c2)cc1-c1nc2ccc(-c3cn[nH]c3)cc2o1	10 µM	1.78 µM		
Nc1ncc(-c2cnn(C3CCNCC3)c2)cc1-c1nc2ccc(OCc3ccccc3)cc2o1	> 10 µM	6.9 µM		
Nc1ncc(-c2cnn(C3CCNCC3)c2)cc1-c1nc2ccc(Oc3ccccc3)cc2o1	> 10 µM	4 µM		

Compound	IC50 [1]	IC50 [2]	IC50 [3]	IC50 [4]
Nc1ncc(-c2cnn(C3CCNCC3)c2)cc1-c1nc2ccc(-c3ccc4[nH]ncc4c3)cc2o1	4.05 µM	1.14 µM		
Nc1ncc(-c2cnn(C3CCNCC3)c2)cc1-c1nc2ccc(OCc3ccc(F)cc3)cc2o1	11.9 µM	1.31 µM		
Nc1ncc(-c2cnn(C3CCNCC3)c2)cc1-c1nc2ccc(Oc3ccc(F)cc3)cc2o1	> 10 µM	7.9 µM		
Nc1ncc(-c2cnn(C3CCNCC3)c2)cc1-c1nc2ccc(Oc3cc(Cl)ccn3)cc2o1	17 µM	5.7 µM		
N#Cc1ccnc(Oc2ccc3nc(-c4cc(-c5cnn(C6CCNCC6)c5)cnc4N)oc3c2)c1	8.1 µM	3.6 µM		
Nc1ncc(-c2cnn(C3CCNCC3)c2)cc1-c1nc2ccc(Oc3ccc(-c4ccccc4)nn3)cc2o1	3.8 µM	1.2 µM		
Nc1ncc(-c2cnn(C3CCNCC3)c2)cc1-c1nc2ccc(Nc3ccccn3)cc2o1	6.05 µM	4.2 µM		
COc1ccc(N(C(=O)Nc2ccc3nc(-c4cc(-c5cnn(C6CCNCC6)c5)cnc4N)oc3c2)c2ccccc2)cc1	0.66 µM			
Nc1ncc(-c2cnn(C3CCNCC3)c2)cc1-c1nc2ccc(NC(=O)Nc3ccc(F)cc3)cc2o1	1.72 µM			
Nc1ncc(-c2cnn(C3CCNCC3)c2)cc1-c1nc2ccc(NC(=O)c3ccccc3)cc2o1	3.19 µM	3.49 µM		
Nc1ncc(-c2cnn(C3CCNCC3)c2)cc1-c1nc2ccc(NC(=O)c3ccc(C(F)(F)F)cc3)cc2o1	3.2 µM	2.83 µM		
Nc1ncc(-c2cnn(C3CCNCC3)c2)cc1-c1nc2ccc(NC(=O)c3ccc(F)cc3)cc2o1	0.96 µM			
COc1ccc(C(=O)Nc2ccc3nc(-c4cc(-c5cnn(C6CCNCC6)c5)cnc4N)oc3c2)cc1	3.97 µM	2.09 µM		
CS(=O)(=O)Oc1ccc2nc(-c3cc(-c4cnn(C5CCNCC5)c4)cnc3N)oc2c1	> 10 µM	6.4 µM		
COc1ccc(-c2ccc3nc(-c4cc(-c5cnn(C6CCNCC6)c5)cnc4N)oc3c2)cc1	3.06 µM	3.22 µM		
CC(C)NC(=O)c1cc2nc(-c3cc(-c4cnn(C5CCNCC5)c4)cnc3N)oc2cc1O	> 10 µM			
CN(C)COc1cccc(-c2cnc(N)c(-c3nc4cccc(-c5ccccn5)c4o3)c2)c1	> 10 µM	5.1 µM		
Nc1ncc(-c2cccc(C(=O)NCCN3CCOCC3)c2)cc1-c1nc2cccc(-c3ccccn3)c2o1	> 10 µM			
Nc1ncc(-c2cnn(C3CCNCC3)c2)cc1-c1nc2ccc(O)c(-c3ccc4cn[nH]c4c3)c2o1	6.5 µM			
COc1ccc(-c2c(O)ccc3nc(-c4cc(-c5cnn(C6CCNCC6)c5)cnc4N)oc23)cc1	> 10 µM			
CCc1ccc2nc(-c3cc(-c4cnn(C5CCNCC5)c4)cnc3N)oc2c1O	> 10 µM	3.4 µM		
COc1ccc2nc(-c3cc(-c4cnn(C5CCNCC5)c4)cnc3N)oc2c1-c1ccc2cn[nH]c2c1	9.16 µM	2.21 µM		
Nc1ncc(-c2cnn(C3CCNCC3)c2)cc1-c1nc2cc(N3CCCCC3)ccc2o1	0.85 µM			
Nc1ncc(-c2cnn(C3CCNCC3)c2)cc1-c1nc2cc(N3CCOCC3)ccc2o1	6.43 µM	1.05 µM		
Nc1ncc(-c2cnn(C3CCNCC3)c2)cc1-c1nc2cc(N3CCCC3)ccc2o1	1.65 µM			
CN(c1ccccc1)c1ccc2oc(-c3cc(-c4cnn(C5CCNCC5)c4)cnc3N)nc2c1	13 µM	5.05 µM		
